Source: patent US20030021810A1 (priority 2001, published 2003)

How the values were obtained:
Format in all cases: cell-based
glioma cells [1] = assay: matrigel invasion assay
From the text: Matrigel matrix is a reconstituted basement membrane isolated from Englebreth-Holm-Swarm (EHS) mouse sarcoma, a tumor rich in extracellular matrix proteins. Matrigel-invasion chamber consisted of falcon cell culture inserts of 8 μm pore-size with a uniform layer of matrigel matrix that occludes the membrane pores. […] Cells which remained in the upper chamber were scrubbed off the inserts and the invaded cells were fixed and stained with crystal violet.

glioma cells [2] = assay: release of mature MMP-2 into conditioned media (Western blot, gelatinase activity assay); details: 50 μM
Method: For these experiments, glioma cells were plated in 96 well (5000 cells/well) or 24 well plates (2.5×10^4/well) in serum containing medium (SCM). After overnight incubation, cell cultures were washed and incubated with serum free medium (SFM) for 24 hrs. Cells were then treated with His-Cltx at concentrations ranging from 30 nM to 3000 nM for 10 min or 30 min at 37° C. Cells were washed and replenished with serum free medium and at post-incubation periods of 10 min, 30 min and 24 hrs, conditioned media was collected from all samples and analyzed for matrix-metalloproteinase-2 activity by gelatinase activity assay as well as Western blots analysis for detection of matrix-metalloproteinase-2 protein. Cells treated with irrelevant His-protein were used as a negative control (untreated cells). […] Conditioned media from 10 wells were pooled for gelatinase activity assay as well as western blot analysis and data shown herein represents an average of three experiments.

glioma cells [3] = assay: in situ zymography of cell surface gelatinolytic activity; details: 50 μM, 30 minutes at 37° C.
Method: FITC-labeled DQ gelatin which is intramolecularly quenched (Molecular Probes, Eugene, Oreg.) was used as a substrate for degradation by gelatinases as reported earlier (Oh et al., 1999). Proteolysis by gelatinases yields cleaved FITC-gelatin peptides and the localization of this fluorescence indicates the sites of net gelatinolytic activity. Briefly, glioma cells were plated on 12 mm coverslips. […] Untreated cells served as negative control for this experiment. Cells were then washed with PBS and then incubated with zymography reaction buffer (0.05 M Tris-HCl, 0.15 M NaCl, 5 mM CaCl2 and 0.2 mM NaN3, pH 7.6- the high concentration of azide will prevent the gelatin from phagocytosing and thus allow cell surface gelatinolytic activity to occur) containing 100 μg/ml DQ gelatin at 37° C. overnight. At the end of the incubation period, without fixation or further washes, gelatinolytic activity of the MMP-s was localized and photographed by fluorescence microscopy and the images were acquired by Spot digital camera.

## c1cnc2c(c1)ccc1cccnc12 [1-10 phenanthroline]
Glioma cells [1]; glioma cells
  inhibition of invasion compared with chlorotoxin: essentially identical inhibition
Glioma cells [1]; treatment with Filipin
  change of inhibition of glioma invasion: only minimally affected
Glioma cells [2]
  release of MMP-2 into the medium: blocked the release
Glioma cells [3]
  inhibition of cell surface gelatinolytic activity versus 300 nM chlorotoxin: comparable
